Laboratory results published in ChEMBL document CHEMBL2413072, “Synthesis and in vitro anticancer studies of novel C-2 arylidene congeners of lantadenes” (2013).

Key:
Format in all cases: functional
T47D = test: Growth inhibition of human T47D cells by sulforhodamine B assay
HT-29 = test: Growth inhibition of human HT-29 cells assessed as cell growth at 10 uM by sulforhodamine B assay; settings: read-out: Activity
[1] = Growth inhibition of human HCC2998 cells assessed as cell growth at 10^-6 M by sulforhodamine B assay; settings: HCC 2998, read-out: Activity
CCRF-CEM [2] = test: Growth inhibition of human CCRF-CEM cells assessed as growth inhibition at 10 uM by sulforhodamine B assay; settings: read-out: GI
MDA-MB-468 [3] = test: Growth inhibition of human MDA-MB-468 cells by sulforhodamine B assay
MDA-MB-468 [4] = test: Growth inhibition of human MDA-MB-468 cells assessed as cell growth at 10^-4 M by sulforhodamine B assay; settings: read-out: Activity
NCI-H23 [5] = test: Growth inhibition of human NCI-H23 cells assessed as cell growth at 10 uM by sulforhodamine B assay; settings: read-out: Activity
TK-10 = test: Growth inhibition of human TK10 cells assessed as cell growth at 10 uM by sulforhodamine B assay; settings: read-out: Activity
UACC-62 [6] = test: Growth inhibition of human UACC62 cells assessed as cell growth at 10 uM by sulforhodamine B assay; settings: read-out: Activity
MDA-MB-231 [7] = test: Growth inhibition of human MDA-MB-231 cells by sulforhodamine B assay
SF-268 = test: Growth inhibition of human SF268 cells assessed as cell growth at 10 uM by sulforhodamine B assay; settings: read-out: Activity
NCI-H23 [8] = test: Growth inhibition of human NCI-H23 cells assessed as cell growth at 10^-7 M by sulforhodamine B assay; settings: read-out: Activity
RPMI-8226 = test: Growth inhibition of human RPMI8226 cells assessed as growth inhibition at 10 uM by sulforhodamine B assay; settings: read-out: GI
OVCAR-3 [9] = test: Growth inhibition of human OVCAR3 cells assessed as growth inhibition at 10 uM by sulforhodamine B assay; settings: read-out: GI
CCRF-CEM [10] = test: Growth inhibition of human CCRF-CEM cells assessed as cell growth at 10^-4 M by sulforhodamine B assay; settings: read-out: Activity
NCI-H522 [11] = test: Growth inhibition of human NCI-H522 cells assessed as cell growth at 10^-4 M by sulforhodamine B assay; settings: read-out: Activity
UACC-62 [12] = test: Growth inhibition of human UACC62 cells assessed as growth inhibition at 10 uM by sulforhodamine B assay; settings: read-out: GI
UO-31 = test: Growth inhibition of human UO31 cells assessed as cell growth at 10^-7 M by sulforhodamine B assay; settings: read-out: Activity
LOX IMVI = test: Growth inhibition of human LOXIMVI cells by sulforhodamine B assay
SR = test: Growth inhibition of human SR cells by sulforhodamine B assay
NCI-H23 [13] = test: Growth inhibition of human NCI-H23 cells assessed as cell growth at 10^-4 M by sulforhodamine B assay; settings: read-out: Activity
HCT-116 = test: Growth inhibition of human HCT116 cells assessed as cell growth at 10^-6 M by sulforhodamine B assay; settings: read-out: Activity
[14] = Growth inhibition of human HCC2998 cells assessed as cell growth at 10 uM by sulforhodamine B assay; settings: HCC 2998, read-out: Activity
OVCAR-3 [15] = test: Growth inhibition of human OVCAR3 cells assessed as cell growth at 10 uM by sulforhodamine B assay; settings: read-out: Activity
NCI-H23 [16] = test: Growth inhibition of human NCI-H23 cells assessed as growth inhibition at 10 uM by sulforhodamine B assay; settings: read-out: GI
A549 [17] = test: Growth inhibition of human A549/ATCC cells assessed as cell growth at 10^-6 M by sulforhodamine B assay; settings: read-out: Activity
NCI-H522 [18] = test: Growth inhibition of human NCI-H522 cells assessed as growth inhibition at 10 uM by sulforhodamine B assay; settings: read-out: GI
A549 [19] = test: Growth inhibition of human A549/ATCC cells assessed as cell growth at 10^-8 M by sulforhodamine B assay; settings: read-out: Activity
[20] = Growth inhibition of human EKVX cells assessed as cell growth at 10 uM by sulforhodamine B assay; settings: read-out: Activity
SF-539 = test: Growth inhibition of human SF539 cells assessed as cell growth at 10 uM by sulforhodamine B assay; settings: read-out: Activity
MCF7 = test: Growth inhibition of human MCF7 cells assessed as cell growth at 10 uM by sulforhodamine B assay; settings: read-out: Activity
BT-549 = test: Growth inhibition of human BT549 cells assessed as cell growth at 10^-4 M by sulforhodamine B assay; settings: read-out: Activity
SK-MEL-5 = test: Growth inhibition of human SK-MEL-5 cells assessed as cell growth at 10^-4 M by sulforhodamine B assay; settings: read-out: Activity
MOLT-4 = test: Growth inhibition of human MOLT4 cells assessed as cell growth at 10^-7 M by sulforhodamine B assay; settings: read-out: Activity
K562 = test: Growth inhibition of human K562 cells assessed as cell growth at 10 uM by sulforhodamine B assay; settings: read-out: Activity
MDA-MB-231 [21] = test: Growth inhibition of human MDA-MB-231 cells assessed as cell growth at 10^-8 M by sulforhodamine B assay; settings: read-out: Activity
HCT-15 = test: Growth inhibition of human HCT15 cells by sulforhodamine B assay
SN12C = test: Growth inhibition of human SN12C cells assessed as cell growth at 10 uM by sulforhodamine B assay; settings: read-out: Activity
Malme-3M = test: Growth inhibition of human MALME-3M cells assessed as growth inhibition at 10 uM by sulforhodamine B assay; settings: read-out: GI
[22] = Growth inhibition of human NCI-ADR-RES cells assessed as cell growth at 10 uM by sulforhodamine B assay; settings: read-out: Activity
OVCAR-8 = test: Growth inhibition of human OVCAR8 cells assessed as cell growth at 10 uM by sulforhodamine B assay; settings: read-out: Activity
NCI-H522 [23] = test: Growth inhibition of human NCI-H522 cells assessed as cell growth at 10 uM by sulforhodamine B assay; settings: read-out: Activity
[24] = read-out: LC50 (the source's name)
[25] = read-out: pLC50 (the source's name) (converted)

Structure (SMILES): C/C=C(/C)C(=O)O[C@@H]1CC(C)(C)C[C@H]2C3=CC[C@@H]4[C@@]5(C)CCC(=O)C(C)(C)[C@@H]5CC[C@@]4(C)[C@]3(C)CC[C@@]12C(=O)O [LANTADENE A]
- GI50 (T47D; read-out: GI50): 6.15 µM
- CC50 (T47D; [24]): > 100 µM
- TGI (T47D; read-out: TGI): > 100 µM
- GI50 (T47D; read-out: pGI50 (converted)): 6.17 µM
- CC50 (T47D; [25]): > 100 µM
- TGI (T47D; read-out: pTGI (converted)): > 100 µM
- growth at 10 µM (HT-29): 67.9%
- growth at 1 µM [1]: 98%
- inhibition of growth at 10 µM (CCRF-CEM [2]): 56.4%
- GI50 (MDA-MB-468 [3]; read-out: GI50): 2.58 µM
- CC50 (MDA-MB-468 [3]; [24]): > 100 µM
- TGI (MDA-MB-468 [3]; read-out: TGI): > 100 µM
- GI50 (MDA-MB-468 [3]; read-out: pGI50 (converted)): 2.57 µM
- CC50 (MDA-MB-468 [3]; [25]): > 100 µM
- TGI (MDA-MB-468 [3]; read-out: pTGI (converted)): > 100 µM
- growth at 100 µM (MDA-MB-468 [4]): 1%
- growth at 10 µM (NCI-H23 [5]): 58%
- growth at 10 µM (TK-10): 83.3%
- growth at 10 µM (UACC-62 [6]): 49.9%
- GI50 (MDA-MB-231 [7]; read-out: GI50): 4.53 µM
- CC50 (MDA-MB-231 [7]; [24]): > 100 µM
- TGI (MDA-MB-231 [7]; read-out: TGI): 33.4 µM
- GI50 (MDA-MB-231 [7]; read-out: pGI50 (converted)): 4.57 µM
- CC50 (MDA-MB-231 [7]; [25]): > 100 µM
- TGI (MDA-MB-231 [7]; read-out: pTGI (converted)): 33.1 µM
- growth at 10 µM (SF-268): 74.1%
- growth at 0.1 µM (NCI-H23 [8]): 99%
- inhibition of growth at 10 µM (RPMI-8226): 83.3%
- inhibition of growth at 10 µM (OVCAR-3 [9]): 37.4%
- growth at 100 µM (CCRF-CEM [10]): 9%
- growth at 100 µM (NCI-H522 [11]): -4%
- inhibition of growth at 10 µM (UACC-62 [12]): 50.1%
- growth at 0.1 µM (UO-31): 94%
- GI50 (LOX IMVI; read-out: GI50): 7.8 µM
- CC50 (LOX IMVI; [24]): > 100 µM
- TGI (LOX IMVI; read-out: TGI): > 100 µM
- GI50 (LOX IMVI; read-out: pGI50 (converted)): 7.76 µM
- CC50 (LOX IMVI; [25]): > 100 µM
- TGI (LOX IMVI; read-out: pTGI (converted)): > 100 µM
- GI50 (SR; read-out: GI50): 3 µM
- CC50 (SR; [24]): > 100 µM
- TGI (SR; read-out: TGI): > 100 µM
- GI50 (SR; read-out: pGI50 (converted)): 3.02 µM
- CC50 (SR; [25]): > 100 µM
- TGI (SR; read-out: pTGI (converted)): > 100 µM
- growth at 100 µM (NCI-H23 [13]): 12%
- growth at 1 µM (HCT-116): 86%
- growth at 10 µM [14]: 61.4%
- growth at 10 µM (OVCAR-3 [15]): 62.6%
- inhibition of growth at 10 µM (NCI-H23 [16]): 42%
- growth at 1 µM (A549 [17]): 80%
- inhibition of growth at 10 µM (NCI-H522 [18]): 33.9%
- growth at 0.01 µM (A549 [19]): 94%
- growth at 10 µM [20]: 49.3%
- growth at 10 µM (SF-539): 78.2%
- growth at 10 µM (MCF7): 54.7%
- growth at 100 µM (BT-549): 18%
- growth at 100 µM (SK-MEL-5): -46%
- growth at 0.1 µM (MOLT-4): 102%
- growth at 10 µM (K562): 44.1%
- growth at 0.01 µM (MDA-MB-231 [21]): 99%
- GI50 (HCT-15; read-out: GI50): 3.17 µM
- LC50 (50% lethal concentration) (HCT-15; read-out: LC50): > 100 µM
- TGI (HCT-15; read-out: TGI): > 100 µM
- GI50 (HCT-15; read-out: pGI50 (converted)): 3.16 µM
- LC50 (50% lethal concentration) (HCT-15; read-out: pLC50 (converted)): > 100 µM
- TGI (HCT-15; read-out: pTGI (converted)): > 100 µM
- growth at 10 µM (SN12C): 52.4%
- inhibition of growth at 10 µM (Malme-3M): 19.6%
- growth at 10 µM [22]: 73.1%
- growth at 10 µM (OVCAR-8): 63.7%
- growth at 10 µM (NCI-H522 [23]): 66.1%
